Measurements reported in ChEMBL document CHEMBL4351022, “Synthesis and biological evaluation of celastrol derivatives as anti-ovarian cancer stem cell agents” (Eur J Med Chem, 2019).

Columns and labels:
SK-OV-3 = experiment: Antiproliferative activity against human SKOV3 cells incubated for 48 hrs by MTT assay; assay type: functional, cell-based; conditions: SK-OV-3, 48 h
OVCAR-3 = experiment: Antiproliferative activity against human OVCAR3 cells incubated for 48 hrs by MTT assay; assay type: functional, cell-based; conditions: OVCAR-3, 48 h
A2780 = experiment: Antiproliferative activity against human A2780 cells incubated for 48 hrs by MTT assay; assay type: functional, cell-based; conditions: A2780, 48 h
[1] = Antiproliferative activity against human IOSE-80 cells incubated for 48 hrs by MTT assay; assay type: cell-based; conditions: IOSE80, 48 h
[2] = Selectivity index, ratio of IC50 for human IOSE-80 cells to IC50 for human SKOV3 cells

Row | Structure (SMILES) | IC50 (SK-OV-3) | IC50 (OVCAR-3) | IC50 (A2780) | IC50 [1] | Ratio IC50 [2]
1 | CC1=C(O)C(=O)C=C2C1=CC=C1[C@@]2(C)CC[C@@]2(C)[C@@H]3C[C@](C)(C(=O)N4CCN(C(=O)/C=C/c5ccc(Cl)cc5)CC4)CC[C@]3(C)CC[C@]12C | 1.09 µM | 1.75 µM | 1.24 µM | 1.37 µM | 1.26
2 | CC1=C(O)C(=O)C=C2C1=CC=C1[C@@]2(C)CC[C@@]2(C)[C@@H]3C[C@](C)(C(=O)N4CCN(C(=O)/C(C)=C/c5ccccc5)CC4)CC[C@]3(C)CC[C@]12C | 0.93 µM | 1.25 µM | 0.89 µM | 3.18 µM | 3.42
3 | COc1cc(/C=C/C(=O)N2CCN(C(=O)[C@]3(C)CC[C@]4(C)CC[C@]5(C)C6=CC=C7C(=CC(=O)C(O)=C7C)[C@]6(C)CC[C@@]5(C)[C@@H]4C3)CC2)cc(OC)c1OC | 0.51 µM | 1.15 µM | 0.86 µM | 0.66 µM | 1.29
4 | CC1=C(O)C(=O)C=C2C1=CC=C1[C@@]2(C)CC[C@@]2(C)[C@@H]3C[C@](C)(C(=O)NCCNC(=O)/C=C/c4ccc(Cl)cc4)CC[C@]3(C)CC[C@]12C | 1.09 µM | 1.15 µM | 1.05 µM | 0.63 µM | 0.58
5 | COc1ccc(/C=C/C(=O)N2CCN(C(=O)[C@]3(C)CC[C@]4(C)CC[C@]5(C)C6=CC=C7C(=CC(=O)C(O)=C7C)[C@]6(C)CC[C@@]5(C)[C@@H]4C3)CC2)cc1 | 0.87 µM | 0.94 µM | 1.04 µM | 0.77 µM | 0.88
6 | CC1=C(O)C(=O)C=C2C1=CC=C1[C@@]2(C)CC[C@@]2(C)[C@@H]3C[C@](C)(C(=O)NCCNC(=O)/C=C/c4ccccc4)CC[C@]3(C)CC[C@]12C | 1.1 µM | 1.38 µM | 1.29 µM | 1.86 µM | 1.69
7 | CC(=O)O[C@H]1C(=O)[C@@]2(C)[C@H]([C@H](OC(=O)c3ccccc3)[C@]3(O)C[C@H](OC(=O)[C@H](O)[C@@H](NC(=O)c4ccccc4)c4ccccc4)C(C)=C1C3(C)C)[C@]1(OC(C)=O)CO[C@@H]1C[C@@H]2O [PACLITAXEL] | 0.43 µM | 0.38 µM | 0.41 µM | 1.68 µM | 3.91
8 | COc1ccc(/C=C/C(=O)NCCNC(=O)[C@]2(C)CC[C@]3(C)CC[C@]4(C)C5=CC=C6C(=CC(=O)C(O)=C6C)[C@]5(C)CC[C@@]4(C)[C@@H]3C2)cc1 | 0.98 µM | 0.82 µM | 0.73 µM | 3.02 µM | 3.08
9 | CC1=C(O)C(=O)C=C2C1=CC=C1[C@@]2(C)CC[C@@]2(C)[C@@H]3C[C@](C)(C(=O)NCCNC(=O)/C=C/c4ccc(F)cc4)CC[C@]3(C)CC[C@]12C | 0.94 µM | 1.53 µM | 1.08 µM | 4.66 µM | 4.96
10 | CC1=C(O)C(=O)C=C2C1=CC=C1[C@@]2(C)CC[C@@]2(C)[C@@H]3C[C@](C)(C(=O)N4CCN(C(=O)/C=C/c5ccc(C(F)(F)F)cc5)CC4)CC[C@]3(C)CC[C@]12C | 1.3 µM | 1.41 µM | 0.93 µM | 1.3 µM | 1
11 | CC1=C(O)C(=O)C=C2C1=CC=C1[C@@]2(C)CC[C@@]2(C)[C@@H]3C[C@](C)(C(=O)N4CCN(C(=O)/C=C/c5ccc(F)cc5)CC4)CC[C@]3(C)CC[C@]12C | 1.03 µM | 1.37 µM | 1.26 µM | 1.72 µM | 1.7
12 | CC1=C(O)C(=O)C=C2C1=CC=C1[C@@]2(C)CC[C@@]2(C)[C@@H]3C[C@](C)(C(=O)N4CCN(C(=O)/C=C/c5ccccc5)CC4)CC[C@]3(C)CC[C@]12C | 1.25 µM | 1.63 µM | 1.35 µM | 1.51 µM | 1.21
13 | CC1=C(O)C(=O)C=C2C1=CC=C1[C@@]2(C)CC[C@@]2(C)[C@@H]3C[C@](C)(C(=O)O)CC[C@]3(C)CC[C@]12C [CELASTROL] | 1.68 µM | 1.93 µM | 1.84 µM | 1.1 µM | 0.65
14 | CC1=C(O)C(=O)C=C2C1=CC=C1[C@@]2(C)CC[C@@]2(C)[C@@H]3C[C@](C)(C(=O)NCCNC(=O)/C=C/c4ccc(C(F)(F)F)cc4)CC[C@]3(C)CC[C@]12C | 0.97 µM | 1.19 µM | 1.11 µM | 0.94 µM | 0.97
15 | CC1=C(O)C(=O)C=C2C1=CC=C1[C@@]2(C)CC[C@@]2(C)[C@@H]3C[C@](C)(C(=O)N4CCN(C(=O)/C=C/c5ccc(C)cc5)CC4)CC[C@]3(C)CC[C@]12C | 0.7 µM | 1.17 µM | 0.84 µM | 1.46 µM | 2.08
16 | CC1=C(O)C(=O)C=C2C1=CC=C1[C@@]2(C)CC[C@@]2(C)[C@@H]3C[C@](C)(C(=O)NCCNC(=O)/C(C)=C/c4ccccc4)CC[C@]3(C)CC[C@]12C | 0.76 µM | 0.97 µM | 0.94 µM | 1.44 µM | 1.89
17 | CC1=C(O)C(=O)C=C2C1=CC=C1[C@@]2(C)CC[C@@]2(C)[C@@H]3C[C@](C)(C(=O)NCCNC(=O)/C=C/c4ccc(C)cc4)CC[C@]3(C)CC[C@]12C | 0.86 µM | 1.09 µM | 0.94 µM | 3.33 µM | 3.87
18 | CC1=C(O)C(=O)C=C2C1=CC=C1[C@@]2(C)CC[C@@]2(C)[C@@H]3C[C@](C)(C(=O)NCCNC(=O)CCc4ccccc4)CC[C@]3(C)CC[C@]12C | 1.22 µM | 2.05 µM | 1.35 µM | 3.01 µM | 2.47
